{
  "source": "patent US4617189A",
  "about": "“Use of selenium-containing compounds for negating the toxic effects of platinum compounds used in chemotherapy, and a novel selenium-containing platinum compound and use thereof as an anti-cancer medicine” (priority 1985, dated 1986)",
  "key": {"[1]": {"test_system": "Cisplatin induced nephrotoxicity", "assay": "Platinum toxicity negating effect: blood urea nitrogen (BUN) determination in BDF1 mice given Cisplatin", "format": "in vivo, mouse (male BDF1)", "details": "for BUN (≥30) on the fourth day / BUN (≥30) on the eleventh day: mice with BUN ≥30 / mice", "procedure": "BUN of the mice which have been administered a platinum complex increases due to the platinum poisoning in the kidney. […] The method of negating platinum toxicity of the present invention will be illustrated in more detail by way of Examples later.\nSodium selenite was administered to the peritoneal cavities of the mice at a dosage of 6.3 mg/kg. […] BUN of the mice was determined on the fourth day from the date of the administration. […] BUN of these control groups was also determined.\nBUN of the mice was dertermined on the fourth day from the date of administration and on the eleventh day from the date of the administration. […] BUN of these control groups was also determined.\nOur studies were carried out in BDF1 male mice weighing approximately 25 grams. All solutions were freshly were daily and given by the intraperitoneal route.\nThe BUN values were determined on the fourth day after the administration of cisplatinol."}, "[2]": {"test_system": "cadmium induced testicular damage", "details": "Kar and co-workers, 1969; cited from earlier work"}, "[3]": {"test_system": "nephrotoxic effects of Cisplatin", "details": "750 mg/kg intraperitoneally or 100 mg/kg intravenously; cited from earlier work"}, "[4]": {"details": "Table 3, sodium selenite 1 mg/kg 2 hours before Cisplatin 14 mg/kg"}, "[5]": {"details": "Table 3, sodium selenite 2 mg/kg 2 hours before Cisplatin 14 mg/kg"}, "[6]": {"details": "Table 3, sodium selenite 4 mg/kg 2 hours before Cisplatin 14 mg/kg"}, "[7]": {"details": "Table 3, sodium selenite 6 mg/kg 2 hours before Cisplatin 14 mg/kg"}, "[8]": {"details": "Table 3, sodium selenite 8 mg/kg 2 hours before Cisplatin 14 mg/kg"}},
  "data": [
    {"smiles": "O=[Se](O)O", "note": "[Sodium selenite]", "values": [
      {"measurement": "number of dead mice", "setting": "[1]; Table 1, fourth day, sodium selenite 6.3 mg/kg 2 hours before Cisplatin 14 mg/kg", "value": 2},
      {"measurement": "BUN (≥30) on the fourth day", "setting": "[1]; Table 1, sodium selenite 6.3 mg/kg 1 hour after Cisplatin 14 mg/kg", "value": "5/5"},
      {"measurement": "BUN (≥30) on the fourth day", "setting": "[1]; Table 1, sodium selenite 6.3 mg/kg 2 hours before Cisplatin 14 mg/kg", "value": "1/3"},
      {"measurement": "BUN (≥30) on the fourth day", "setting": "[1]; Table 1, sodium selenite 6.3 mg/kg 4 hours before Cisplatin 14 mg/kg", "value": "4/5"},
      {"measurement": "BUN (≥30) on the fourth day", "setting": "[1]; Table 1, sodium selenite 6.3 mg/kg i.p. alone, no Cisplatin", "value": "0/5"},
      {"measurement": "BUN (≥30) on the fourth day", "setting": "[1]; Table 1, sodium selenite 6.3 mg/kg simultaneously with Cisplatin 14 mg/kg", "value": "2/5"},
      {"measurement": "number of dead mice", "setting": "[1]; Table 2, fourth day, sodium selenite 6.3 mg/kg 3 hours before Cisplatin 14 mg/kg", "value": 1},
      {"measurement": "number of dead mice", "setting": "[1]; Table 2, fourth day, sodium selenite 6.3 mg/kg 4 hours before Cisplatin 14 mg/kg", "value": 1},
      {"measurement": "number of dead mice", "setting": "[1]; Table 2, fourth day, sodium selenite 6.3 mg/kg 6 hours before Cisplatin 14 mg/kg", "value": 1},
      {"measurement": "number of dead mice", "setting": "[1]; Table 2, fourth day, sodium selenite 6.3 mg/kg simultaneously with Cisplatin 14 mg/kg", "value": 1},
      {"measurement": "BUN (≥30) on the fourth day", "setting": "[1]; Table 2, sodium selenite 6.3 mg/kg 1 hour before Cisplatin 14 mg/kg", "value": "3/5"},
      {"measurement": "BUN (≥30) on the fourth day", "setting": "[1]; Table 2, sodium selenite 6.3 mg/kg 2 hours before Cisplatin 14 mg/kg", "value": "1/5"},
      {"measurement": "BUN (≥30) on the fourth day", "setting": "[1]; Table 2, sodium selenite 6.3 mg/kg 3 hours before Cisplatin 14 mg/kg", "value": "1/4"},
      {"measurement": "BUN (≥30) on the fourth day", "setting": "[1]; Table 2, sodium selenite 6.3 mg/kg 4 hours before Cisplatin 14 mg/kg", "value": "2/4"},
      {"measurement": "BUN (≥30) on the fourth day", "setting": "[1]; Table 2, sodium selenite 6.3 mg/kg 6 hours before Cisplatin 14 mg/kg", "value": "2/4"},
      {"measurement": "BUN (≥30) on the fourth day", "setting": "[1]; Table 2, sodium selenite 6.3 mg/kg simultaneously with Cisplatin 14 mg/kg", "value": "2/4"},
      {"measurement": "number of dead mice", "setting": "[1]; Table 3, eleventh day, sodium selenite 2 mg/kg 2 hours before Cisplatin 14 mg/kg", "value": 1},
      {"measurement": "number of dead mice", "setting": "[1]; Table 3, eleventh day, sodium selenite 4 mg/kg 2 hours before Cisplatin 14 mg/kg", "value": 2},
      {"measurement": "number of dead mice", "setting": "[1]; Table 3, eleventh day, sodium selenite 6 mg/kg 2 hours before Cisplatin 14 mg/kg", "value": 1},
      {"measurement": "number of dead mice", "setting": "[1]; Table 3, eleventh day, sodium selenite 8 mg/kg 2 hours before Cisplatin 14 mg/kg", "value": 1},
      {"measurement": "number of dead mice", "setting": "[1]; Table 3, fourth day, sodium selenite 4 mg/kg 2 hours before Cisplatin 14 mg/kg", "value": 1},
      {"measurement": "number of dead mice", "setting": "[1]; Table 3, fourth day, sodium selenite 8 mg/kg 2 hours before Cisplatin 14 mg/kg", "value": 1},
      {"measurement": "BUN (≥30) on the eleventh day", "setting": "[1]; [4]", "value": "1/5"},
      {"measurement": "BUN (≥30) on the fourth day", "setting": "[1]; [4]", "value": "3/5"},
      {"measurement": "BUN (≥30) on the eleventh day", "setting": "[1]; [5]", "value": "0/4"},
      {"measurement": "BUN (≥30) on the fourth day", "setting": "[1]; [5]", "value": "1/5"},
      {"measurement": "BUN (≥30) on the eleventh day", "setting": "[1]; [6]", "value": "0/3"},
      {"measurement": "BUN (≥30) on the fourth day", "setting": "[1]; [6]", "value": "1/4"},
      {"measurement": "BUN (≥30) on the eleventh day", "setting": "[1]; [7]", "value": "0/4"},
      {"measurement": "BUN (≥30) on the fourth day", "setting": "[1]; [7]", "value": "1/5"},
      {"measurement": "BUN (≥30) on the eleventh day", "setting": "[1]; [8]", "value": "0/4"},
      {"measurement": "BUN (≥30) on the fourth day", "setting": "[1]; [8]", "value": "1/4"}
    ]},
    {"smiles": "[Se]", "note": "[selenium]", "values": [
      {"measurement": "cadmium induced testicular damage", "setting": "[2]", "value": "prevents"}
    ]},
    {"smiles": "CCN(CC)C(=S)[S-].[Na+]", "note": "[sodium diethyldithiocarbamate]", "values": [
      {"measurement": "nephrotoxic effects of Cisplatin in female rats", "setting": "[3]", "value": "effectively inhibited"}
    ]}
  ]
}
